Assay results taken from PubChem BioAssay (NCI).
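Dose response: 5 concentrations. Exposure: 48 h. Format: 96-well plates. Endpoint: linear interpolation; highest concentration if not reached. The concentration for 50% growth inhibition is given as GI50. TGI: concentration producing complete growth inhibition.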

Key:
Test in all cases: inhibition of tumour cell growth, NCI panel, 48 h
SW-620 colon = tested on: SW-620 colon
SF-295 CNS = tested on: SF-295 CNS
NCI-H226 lung = tested on: NCI-H226 lung
UACC-257 melanoma = tested on: UACC-257 melanoma
MDA-MB-231 breast = tested on: MDA-MB-231 breast
786-0 renal = tested on: 786-0 renal
SF-539 CNS = tested on: SF-539 CNS
HS 578T breast = tested on: HS 578T breast
SNB-19 CNS = tested on: SNB-19 CNS
SK-MEL-2 melanoma = tested on: SK-MEL-2 melanoma
UACC-62 melanoma = tested on: UACC-62 melanoma
NCI/ADR-RES ovarian = tested on: NCI/ADR-RES ovarian
SK-MEL-28 melanoma = tested on: SK-MEL-28 melanoma
RXF 393 renal = tested on: RXF 393 renal
TK-10 renal = tested on: TK-10 renal
MOLT-4 leukemia = tested on: MOLT-4 leukemia
SF-268 CNS = tested on: SF-268 CNS
NCI-H522 lung = tested on: NCI-H522 lung
SK-MEL-5 melanoma = tested on: SK-MEL-5 melanoma
MCF7 breast = tested on: MCF7 breast
ACHN renal = tested on: ACHN renal
SNB-75 CNS = tested on: SNB-75 CNS
KM12 colon = tested on: KM12 colon
RPMI-8226 leukemia = tested on: RPMI-8226 leukemia
K-562 leukemia = tested on: K-562 leukemia
NCI-H23 lung = tested on: NCI-H23 lung
SK-OV-3 ovarian = tested on: SK-OV-3 ovarian
EKVX NSCLC = tested on: EKVX NSCLC
SR leukemia = tested on: SR leukemia
HL-60(TB) leukemia = tested on: HL-60(TB) leukemia
PC-3 prostate = tested on: PC-3 prostate
A549 NSCLC = tested on: A549 NSCLC
HOP-62 NSCLC = tested on: HOP-62 NSCLC
LOX IMVI melanoma = tested on: LOX IMVI melanoma
IGROV1 ovarian = tested on: IGROV1 ovarian
BT-549 breast = tested on: BT-549 breast
OVCAR-8 ovarian = tested on: OVCAR-8 ovarian
MDA-MB-435 = tested on: MDA-MB-435
HOP-92 NSCLC = tested on: HOP-92 NSCLC
T-47D breast = tested on: T-47D breast
HCT-116 colon = tested on: HCT-116 colon
COLO 205 colon = tested on: COLO 205 colon
CCRF-CEM leukemia = tested on: CCRF-CEM leukemia
OVCAR-4 ovarian = tested on: OVCAR-4 ovarian
CAKI-1 renal = tested on: CAKI-1 renal
DU-145 prostate = tested on: DU-145 prostate
U251 CNS = tested on: U251 CNS
HCT-15 colon = tested on: HCT-15 colon
HCC-2998 colon = tested on: HCC-2998 colon
OVCAR-3 ovarian = tested on: OVCAR-3 ovarian
SN12C renal = tested on: SN12C renal
A498 renal = tested on: A498 renal
NCI-H460 lung = tested on: NCI-H460 lung
MALME-3M melanoma = tested on: MALME-3M melanoma
UO-31 renal = tested on: UO-31 renal
HT29 colon = tested on: HT29 colon
OVCAR-5 ovarian = tested on: OVCAR-5 ovarian

CC[C@H]1OC(=O)[C@H](C)[C@@H](O[C@H]2C[C@@](C)(OC)[C@@H](O)[C@H](C)O2)[C@H](C)[C@@H](O[C@@H]2O[C@H](C)C[C@H](N(C)C)[C@H]2O)[C@](C)(OC)C/C(C)=C2/O[C@@]1(C)C=C2C
GI50 (SW-620 colon): 1780 nM | TGI (SW-620 colon): 3.42 µM | GI50 (SF-295 CNS): 1850 nM | TGI (SF-295 CNS): 3.35 µM | GI50 (NCI-H226 lung): 2120 nM | TGI (NCI-H226 lung): 4.42 µM | GI50 (UACC-257 melanoma): 1830 nM | TGI (UACC-257 melanoma): 3.62 µM | GI50 (MDA-MB-231 breast): 1670 nM | TGI (MDA-MB-231 breast): 3.13 µM | GI50 (786-0 renal): 1640 nM | TGI (786-0 renal): 3.16 µM | GI50 (SF-539 CNS): 1620 nM | TGI (SF-539 CNS): 2990 nM | GI50 (HS 578T breast): 1680 nM | TGI (HS 578T breast): 3.62 µM | GI50 (SNB-19 CNS): 1700 nM | TGI (SNB-19 CNS): 3.13 µM | GI50 (SK-MEL-2 melanoma): 1850 nM | TGI (SK-MEL-2 melanoma): 3.73 µM | GI50 (UACC-62 melanoma): 1760 nM | TGI (UACC-62 melanoma): 3.18 µM | GI50 (NCI/ADR-RES ovarian): 1770 nM | TGI (NCI/ADR-RES ovarian): 3.57 µM | GI50 (SK-MEL-28 melanoma): 1890 nM | TGI (SK-MEL-28 melanoma): 3.32 µM | GI50 (RXF 393 renal): 2090 nM | TGI (RXF 393 renal): 3.75 µM | GI50 (TK-10 renal): 1720 nM | TGI (TK-10 renal): 3.32 µM | GI50 (MOLT-4 leukemia): 1960 nM | TGI (MOLT-4 leukemia): 4.49 µM | GI50 (SF-268 CNS): 1600 nM | TGI (SF-268 CNS): 3.3 µM | GI50 (NCI-H522 lung): 1720 nM | TGI (NCI-H522 lung): 3.63 µM | GI50 (SK-MEL-5 melanoma): 1790 nM | TGI (SK-MEL-5 melanoma): 3.21 µM | GI50 (MCF7 breast): 1820 nM | TGI (MCF7 breast): 3.63 µM | GI50 (ACHN renal): 1760 nM | TGI (ACHN renal): 3.15 µM | GI50 (SNB-75 CNS): 1270 nM | TGI (SNB-75 CNS): 2640 nM | GI50 (KM12 colon): 1630 nM | TGI (KM12 colon): 3.11 µM | GI50 (RPMI-8226 leukemia): 1900 nM | TGI (RPMI-8226 leukemia): 5.14 µM | GI50 (K-562 leukemia): 1560 nM | TGI (K-562 leukemia): 4.8 µM | GI50 (NCI-H23 lung): 1960 nM | TGI (NCI-H23 lung): 3.63 µM | GI50 (SK-OV-3 ovarian): 1910 nM | TGI (SK-OV-3 ovarian): 3.75 µM | GI50 (EKVX NSCLC): 1710 nM | TGI (EKVX NSCLC): 3.26 µM | GI50 (SR leukemia): 1970 nM | TGI (SR leukemia): 5.09 µM | GI50 (HL-60(TB) leukemia): 1860 nM | TGI (HL-60(TB) leukemia): 4.16 µM | GI50 (PC-3 prostate): 1680 nM | TGI (PC-3 prostate): 3.46 µM | GI50 (A549 NSCLC): 1630 nM | TGI (A549 NSCLC): 3.42 µM | GI50 (HOP-62 NSCLC): 2310 nM | TGI (HOP-62 NSCLC): 4.74 µM | GI50 (LOX IMVI melanoma): 1610 nM | TGI (LOX IMVI melanoma): 3.08 µM | GI50 (IGROV1 ovarian): 1590 nM | TGI (IGROV1 ovarian): 3.03 µM | GI50 (BT-549 breast): 1660 nM | TGI (BT-549 breast): 3.28 µM | GI50 (OVCAR-8 ovarian): 2200 nM | TGI (OVCAR-8 ovarian): 5.75 µM | GI50 (MDA-MB-435): 1670 nM | TGI (MDA-MB-435): 3.15 µM | GI50 (HOP-92 NSCLC): 1570 nM | TGI (HOP-92 NSCLC): 3.82 µM | GI50 (T-47D breast): 1960 nM | TGI (T-47D breast): 4.56 µM | GI50 (HCT-116 colon): 1930 nM | TGI (HCT-116 colon): 4.36 µM | GI50 (COLO 205 colon): 1680 nM | TGI (COLO 205 colon): 3.69 µM | GI50 (CCRF-CEM leukemia): 2220 nM | TGI (CCRF-CEM leukemia): 5.62 µM | GI50 (OVCAR-4 ovarian): 1850 nM | TGI (OVCAR-4 ovarian): 4.22 µM | GI50 (CAKI-1 renal): 1510 nM | TGI (CAKI-1 renal): 2930 nM | GI50 (DU-145 prostate): 1820 nM | TGI (DU-145 prostate): 3.39 µM | GI50 (U251 CNS): 1750 nM | TGI (U251 CNS): 3.54 µM | GI50 (HCT-15 colon): 1890 nM | TGI (HCT-15 colon): 3.6 µM | GI50 (HCC-2998 colon): 1140 nM | TGI (HCC-2998 colon): 2530 nM | GI50 (OVCAR-3 ovarian): 1760 nM | TGI (OVCAR-3 ovarian): 3.28 µM | GI50 (SN12C renal): 1640 nM | TGI (SN12C renal): 3.02 µM | GI50 (A498 renal): 1750 nM | TGI (A498 renal): 3.59 µM | GI50 (NCI-H460 lung): 1810 nM | TGI (NCI-H460 lung): 3.35 µM | GI50 (MALME-3M melanoma): 1580 nM | TGI (MALME-3M melanoma): 2970 nM | GI50 (UO-31 renal): 1370 nM | TGI (UO-31 renal): 2650 nM | GI50 (HT29 colon): 1830 nM | TGI (HT29 colon): 4.14 µM | GI50 (OVCAR-5 ovarian): 1680 nM | TGI (OVCAR-5 ovarian): 3.06 µM
